The text below walks through data of patent publication US12275734B1, “Pleuromutilin onium salt derivative containing a 3H-imidazo[4,5-c]pyridine side chain, and a preparation method and application thereof” (SHAANXI UNIVERSITY OF SCIENCE AND TECHNOLOGY, priority 2024, dated 2025).

Broadly, the MIC is the lowest concentration found to suppress growth.

Values after ≈ are worked out from the molar mass of the structure shown.

Experiment [1] relates to E. coli (ATCC 25922). The experiment in a line: Time-kill curve. In kind it is cell-based. Particulars: 1×MIC to 8×MIC, 0-24 hours. How it is done:
Based on the MIC test results, the best performing active compounds were selected for time-kill curve studies.
(2) Sampling: At 0, 2, 4, 6, 8, 12, and 24 hours, aspirate 100 μL of the mixture
(3) Serial dilution and coating: Use 10 mM PBS buffer to dilute 10 times continuously, and evenly coat the diluted liquid on the agar plate
(4) Incubation and counting: Incubate in a 37° C. incubator for 24 hours and count the colonies.
(5) Sterilization curve drawing: Draw the curve of colony count change over time at different compound concentrations, and record the results as shown in FIG. 1.

Experiment [2] concerns MRSA (ATCC 33591). In words: Biofilm formation, crystal violet staining. Type of experiment: cell-based, S. aureus. How it is done: Quantification of biofilm using crystal violet staining:
MRSA and E. coli cells were first adjusted to the logarithmic growth phase and diluted to […]. […] A blank control group without compound addition was set up. After incubation, the suspension was discarded and washed three times with 10 mM PBS buffer, and the biofilm was fixed with methanol for 15 minutes. After removing the methanol, 200 μL of 0.1% crystal violet was added to each well for staining for 30 minutes, and then the crystal violet was discarded and washed again with PBS three times. After the well plate was dried, 200 μL of 95% ethanol was added to each well to dissolve the fixed dye. […] This process allows for quantitative analysis of the ability of different concentrations of compound i to form biofilms.

The subject of experiment [3] is MRSA (ATCC 33591). The experiment in a line: Cell membrane integrity, propidium iodide staining. Type of experiment: cell-based, S. aureus. How it is done: The steps for dead cell staining using propidium iodide are as follows:
At the beginning of the experiment, samples were taken from MRSA and E. coli in the logarithmic growth phase, centrifuged at 8000 rpm for 5 minutes and washed twice with 0.85% NaCl solution to remove the culture medium and other possible interfering substances. Afterwards, the bacteria were resuspended in 0.85% NaCl solution and the concentration was adjusted to approximately 1×10^8 CFU/mL.
[…] After incubation, in order to mark and distinguish dead cells, 15 μM propidium iodide solution was added to each sample and incubated in the dark for 15 minutes. PI is a fluorescent dye that binds to DNA and can only penetrate into dead cells with damaged cell membranes.
Finally, the samples were observed using a fluorescence microscope or a confocal laser scanning microscope. By setting the appropriate fluorescence channel (excitation wavelength 535 nm, emission wavelength 617 nm), the red fluorescence emitted by dead cells can be detected. In this way, the effect of compound i on the lethality of bacterial cells can be intuitively evaluated and recorded, providing an experimental basis for further drug research.

For experiment [4], the system named is MRSA (ATCC 33591). The experiment in a line: Bacterial cell morphology by FESEM. In kind it is cell-based, S. aureus. The settings on record: 4 hours. Here is the method:
Observation of bacterial cell morphology using FESEM:
First, the bacterial suspension was adjusted to OD600=0.5, and then the bacteria were treated with compound i at a final concentration of 1×MIC and 4×MIC at 37° C. for 4 hours, and a control group without compound addition was set up. After treatment, the bacteria were collected by high-speed centrifugation at 6000 rpm for 10 minutes and washed three times with 10 mM PBS buffer to remove residual culture medium and drugs. Subsequently, the bacteria were fixed with 2.5% glutaraldehyde at 4° C. for 12 hours to maintain the integrity of the cell structure, and then washed again with PBS buffer three times to remove excess glutaraldehyde.
Next, the cells were subjected to a series of ethanol dehydration treatments (30%, 50%, 70%, 80%, 90% and 100% ethanol), and the treatment time of each concentration was sufficient to replace the intracellular water. After dehydration, the sample was resuspended in isoamyl acetate for 30 minutes and then centrifuged at 6000 rpm for 10 minutes to remove the supernatant. The sample was then dried and dotted on a stage with conductive glue, gold-plated to enhance the conductivity of the sample, and finally observed using a field emission scanning electron microscope (FESEM) to obtain high-resolution images of bacterial cell morphology and surface morphology. […]

Experiment [5] relates to MRSA (ATCC 33591). The experiment in a line: Cell membrane potential, DiBAC4 (3) probe. Particulars: 1×MIC to 8×MIC, vs blank control.
In experiment [6] the test system is E. coli (ATCC 25922). The experiment in a line: Cell membrane potential, DiBAC4 (3) probe. The settings on record: 1×MIC to 8×MIC, vs blank control.
For experiment [7], the system named is C. pneumoniae CWL-029, VR-1310. In words: Anti-mycoplasma MIC. The settings on record: Chlamydia pneumoniae, read-out: Antimycoplasma activity (MIC) CP-CWL-029^h. Type of experiment: cell-based. Here is the method: The antimycoplasma activity was quantified using the […]. Retapamulin was used as a positive control to test the minimum inhibitory concentration of 3H-imidazo[4,5-C]pyridine pleuromutilin onium salt derivatives.
(1) Preparation of KM2 medium: Weigh 38.9 g of KM2 medium, add it to 800 mL of distilled water, boil to dissolve, sterilize under high pressure at 115° C. for 20 min, and set aside.
(2) Preparation of bacterial stock solution: Take 0.5 mL of Mhp-J^a, Mhp-LH^b, Mhr-BTS-7^c, MG-R^d, MS-WVU1853^e, MP-M129^f, CP-AR-39^g, CP-CWL-029^h, CP-TW-183^i, MH-PG-21^j, MG-G37^k cultured to the logarithmic phase and transfer it to 4.5 mL of KM2 liquid culture medium. When the culture medium turns yellow, divide each bacterium into 0.5 mL per tube and store it at −70° C. as bacterial stock solution.
(3) Determination of bacterial titer (color change unit, CCU): Take out the bacterial stock solution stored at −70° C., melt and balance to room temperature, add 0.18 mL KM2 medium to each well of the middle 4 rows of the 96-well plate (i.e. 4 parallels), take 0.02 mL and add it to the first column, dilute 10 times to 10^−11, and set up a negative control containing only KM2 medium (12th column). After sealing, put it in a 37° C. incubator and observe the results every day. The highest dilution at which the color of the medium changes is the CCU/mL of the strain.
Take an appropriate amount of seed bacterial solution and dilute it to 10^4 CCU/mL in turn according to its titer. Add drugs of each dilution in a 96-well plate in turn, and then add an equal amount of diluted bacterial solution. Set 200 μL of diluted mycoplasma bacterial solution as a positive control, 200 μL of KM2 liquid culture medium as a negative control, and set a solvent control group (10 μL of drug solvent+190 μL of mycoplasma bacterial solution). Each experiment is set up in 3 parallels. After all culture plates are sealed, they are cultured at 37° C., observed daily, and the final MIC value is recorded.

Consider `C=C[C@]1(C)C[C@@H](OC(=O)CSc2nc3cc[n+](Cc4ccc(C)cc4)cc3[nH]2)[C@]2(C)[C@H](C)CC[C@]3(CCC(=O)[C@H]32)[C@@H](C)[C@@H]1O` [Compound i, 5-(4-methylbenzyl)-2-((2-(((3aR,4R,5R,7S,8S,9R,9aS,12R)-8-hydroxy-4,7,9,12-tetramethyl-3-oxo-7-vinyldecahydro-4,9a-propancyclopenta[8]cyclo-5-yl)oxy)-2-oxoethyl)thio)-3H-imidazo[4,5-C]pyridine-5-ium], for which the “bactericidal efficiency (time-kill curve) compared with retapamulin” value with E. coli (ATCC 25922) [1] is reported as “higher bactericidal efficiency”. Moreover, the “inhibition rate of biofilm formation” value in the experiment with MRSA (ATCC 33591) [2] (1×MIC) worked out at 51.33%; in the experiment on MRSA (ATCC 33591) [2] (8×MIC) it was 86.68%. The “cell membrane integrity, propidium iodide red fluorescence” value is on record as “obvious red fluorescence was observed” with MRSA (ATCC 33591) [3] (1×MIC) and “red fluorescence was significantly enhanced” in the experiment with MRSA (ATCC 33591) [3] (2×MIC). The “bacterial cell morphology (FESEM)” value in the experiment with MRSA (ATCC 33591) [4] (1×MIC) is recorded as “showed an irregular shape”; in the experiment with MRSA (ATCC 33591) [4] (4×MIC) it was “obvious shrinkage or deformation”. Moreover, the figures for the “membrane potential, DiBAC4 (3) fluorescence intensity” value with MRSA (ATCC 33591) [5] and in the experiment on E. coli (ATCC 25922) [6] were “significant dose-dependent increase” and “dose-dependent increase in fluorescence intensity”, respectively.
Turning to `C=C[C@]1(C)C[C@@H](OC(=O)CS[C@@H]2C[C@H]3CC[C@@H](C2)N3C)[C@]2(C)[C@H](C)CC[C@]3(CCC(=O)[C@H]32)[C@@H](C)[C@@H]1O` [Retapamulin, reference compound], the MIC in experiment [7] is 0.03 mg/L (≈ 0.0579 µM).
